Results on 35 molecules are retold here after patent publication US6140368A, “Naphthols useful in antiviral methods” (The Regents of the University of California, priority 1998, dated 2000).

pIC50: −log10 of the molar value.

What is called remaining activity is the activity still measured, relative to the control. The pIC50 is the negative decadic logarithm of the IC50, by convention in mol/L.

One experiment concerns the target HIV reverse transcriptase (Human immunodeficiency virus type 1 group M subtype B, UniProt P03366). Nature of the experiment: Reverse transcriptase scintillation proximity assay (Example 4, Table 2). The class given is biochemical. Conditions: 10 μM inhibitor; relative to dimethyl sulfoxide = 100%; 3 min, 10 µM. The method, then: Reverse transcriptase ("RT") activity is measured using a scintillation proximity assay kit available from Amersham Life Sciences, Inc., which uses a biotin/streptavidin bead capture system. RNA-dependent polymerase activity is measured using purified […] and a synthetic 17mer/50mer RNA-DNA template-primer containing biotin at the 5' end of the DNA. The template-primer, buffer, dNTP, and inhibitor are incubated for 10 minutes at 37° C. before the RT is added. The final 100 μl reaction mixture contains: 39 nm of template primer, buffer (40 mM tris HCl at pH 8.0, 10 mM MgCl2, 60 mM KCl, 10 mM dithiothreitol); 75 nM of each dNTP except dTTP; 25 nM dTTP and 35 nM tritium labeled d*TTP; 10 μM inhibitor; and 1.0-2.0 μg of RT. After three minute incubation, the reaction is quenched with 40 μl of 0.56M EDTA. Then 10 μl of streptavidin SPA beads (in suspension) are added and incubated at 37° C. for 10 minutes. Finally, 850 μl of a buffer containing 10 mM Tris HCl pH 7.4 and 0.15M NaCl is added. The signal is produced by biotinylated polymers incorporating d*TTP binding to the streptavidin beads which stimulate the scintillant. The amount of d*TTP incorporated in the polymer is measured with a scintillation counter.
Compounds showing good inhibition will give a low number of counts/min (cpm). This number is related to a standard, dimethyl sulfoxide, which is given an arbitrary 100% relative activity. All cpm data in a single run are given a percent of this standard.
In general terms: Scintillation proximity formats need no separation of bound from free tracer.
With `O=C(O)c1ccc(N=Nc2c(S(=O)(=O)O)cc3cc(NC(=O)c4ccc(C(=O)Nc5ccc6c(O)c(N=Nc7ccc(C(=O)O)cc7)c(S(=O)(=O)O)cc6c5)cc4)ccc3c2O)cc1` [Compound 162], the “% RT activity remaining at 10 μM” value is 5.9%.
On the same count and under the same terms, the same measure for `O=C(O)c1ccc(N=Nc2c(S(=O)(=O)O)cc3cc(NC(=O)c4ccc(C(=O)Nc5ccc6c(O)c(N=Nc7ccc(C(=O)O)cc7)c(S(=O)(=O)O)cc6c5)cc4)ccc3c2O)cc1` [Compound 169]: “.15%”.

The same experiment, now with this note: 0.05 h, 10 μM inhibitor; relative to dimethyl sulfoxide = 100%; read-out: % RT activity remaining at 10 μM.
On to `O=C(O)c1ccc(N=Nc2c(S(=O)(=O)O)cc3cc(NC(=O)c4cc(=O)cc(C(=O)Nc5ccc6c(O)c(N=Nc7ccc(C(=O)O)cc7)c(S(=O)(=O)O)cc6c5)o4)ccc3c2O)cc1` [Compound 132], for which the remaining activity at 10 µM was 0.19%.
Turning to `O=C(O)Cc1ccc(N=Nc2c(S(=O)(=O)O)cc3cc(NC(=O)c4cc(=O)cc(C(=O)Nc5ccc6c(O)c(N=Nc7ccc(CC(=O)O)cc7)c(S(=O)(=O)O)cc6c5)o4)ccc3c2O)cc1` [Compound 133], the remaining activity at 10 µM came out at 0.4%.
Regarding `O=C(O)CCc1ccc(N=Nc2c(S(=O)(=O)O)cc3cc(NC(=O)c4cc(=O)cc(C(=O)Nc5ccc6c(O)c(N=Nc7ccc(CCC(=O)O)cc7)c(S(=O)(=O)O)cc6c5)o4)ccc3c2O)cc1` [Compound 134], the remaining activity at 10 µM worked out at 0.25%.
Still for that read-out and setting: to `O=C(O)CCCCCc1ccc(N=Nc2c(S(=O)(=O)O)cc3cc(NC(=O)c4cc(=O)cc(C(=O)Nc5ccc6c(O)c(N=Nc7ccc(CCCCCC(=O)O)cc7)c(S(=O)(=O)O)cc6c5)o4)ccc3c2O)cc1` [Compound 135] belongs 0.16%; to `O=C(O)/C=C/c1ccc(N=Nc2c(S(=O)(=O)O)cc3cc(NC(=O)c4cc(=O)cc(C(=O)Nc5ccc6c(O)c(N=Nc7ccc(/C=C/C(=O)O)cc7)c(S(=O)(=O)O)cc6c5)o4)ccc3c2O)cc1` [Compound 137], 0.53%.
On the same count and under the same terms, to `COc1cc(C(=O)O)ccc1N=Nc1c(S(=O)(=O)O)cc2cc(NC(=O)c3cc(=O)cc(C(=O)Nc4ccc5c(O)c(N=Nc6ccc(C(=O)O)cc6OC)c(S(=O)(=O)O)cc5c4)o3)ccc2c1O` [Compound 139] belongs 0.34%; to `O=C(O)c1cc(N=Nc2c(S(=O)(=O)O)cc3cc(NC(=O)c4cc(=O)cc(C(=O)Nc5ccc6c(O)c(N=Nc7cc(C(=O)O)cc(C(=O)O)c7)c(S(=O)(=O)O)cc6c5)o4)ccc3c2O)cc(C(=O)O)c1` [Compound 143], 0.23%; to `Cc1cc(C(=O)O)ccc1N=Nc1c(S(=O)(=O)O)cc2cc(NC(=O)c3cc(=O)cc(C(=O)Nc4ccc5c(O)c(N=Nc6ccc(C(=O)O)cc6C)c(S(=O)(=O)O)cc5c4)o3)ccc2c1O` [Compound 144], 0.26%.
The same measure, in the same setting: the same measure for `O=C(Nc1ccc2c(O)cc(S(=O)(=O)O)cc2c1)c1cc(O)cc(C(=O)Nc2ccc3c(O)cc(S(=O)(=O)O)cc3c2)n1` [Compound 145]: 47%; for `O=C(O)Cc1ccc(N=Nc2c(S(=O)(=O)O)cc3cc(NC(=O)c4cc(O)cc(C(=O)Nc5ccc6c(O)c(N=Nc7ccc(CC(=O)O)cc7)c(S(=O)(=O)O)cc6c5)n4)ccc3c2O)cc1` [Compound 147]: 0.3%.
For `O=C(O)c1cccc(N=Nc2c(S(=O)(=O)O)cc3cc(NC(=O)c4cc(O)cc(C(=O)Nc5ccc6c(O)c(N=Nc7cccc(C(=O)O)c7)c(S(=O)(=O)O)cc6c5)n4)ccc3c2O)c1` [Compound 150], the remaining activity at 10 µM came to 0.6%.
On the same count and under the same terms, to `O=C(O)/C=C/c1ccc(N=Nc2c(S(=O)(=O)O)cc3cc(NC(=O)c4cc(O)cc(C(=O)Nc5ccc6c(O)c(N=Nc7ccc(/C=C/C(=O)O)cc7)c(S(=O)(=O)O)cc6c5)n4)ccc3c2O)cc1` [Compound 151] belongs 0.2%.
Turning to `COc1cc(C(=O)O)ccc1N=Nc1c(S(=O)(=O)O)cc2cc(NC(=O)c3cc(O)cc(C(=O)Nc4ccc5c(O)c(N=Nc6ccc(C(=O)O)cc6OC)c(S(=O)(=O)O)cc5c4)n3)ccc2c1O` [Compound 153], the remaining activity at 10 µM was 0.15%.
For the molecule `COc1cc(N=Nc2c(S(=O)(=O)O)cc3cc(NC(=O)c4cc(O)cc(C(=O)Nc5ccc6c(O)c(N=Nc7cc(OC)c(OC)c(OC)c7C(=O)O)c(S(=O)(=O)O)cc6c5)n4)ccc3c2O)c(C(=O)O)c(OC)c1OC` [Compound 156], the remaining activity at 10 µM came to 15%.
For the molecule `O=C(Nc1ccc2c(O)cc(S(=O)(=O)O)cc2c1)c1ccc(C(=O)Nc2ccc3c(O)cc(S(=O)(=O)O)cc3c2)cc1` [Compound 160], the remaining activity at 10 µM worked out at 74%.
Same read-out and setting: the same measure for `O=C(O)/C=C/c1ccc(N=Nc2c(S(=O)(=O)O)cc3cc(NC(=O)c4ccc(C(=O)Nc5ccc6c(O)c(N=Nc7ccc(/C=C/C(=O)O)cc7)c(S(=O)(=O)O)cc6c5)cc4)ccc3c2O)cc1` [Compound 161]: 25%.
Same read-out and setting: to `O=C(O)Cc1ccc(N=Nc2c(S(=O)(=O)O)cc3cc(NC(=O)c4ccc(C(=O)Nc5ccc6c(O)c(N=Nc7ccc(CC(=O)O)cc7)c(S(=O)(=O)O)cc6c5)cc4)ccc3c2O)cc1` [Compound 163] belongs 0.1%.
In the case of `O=C(O)CCc1ccc(N=Nc2c(S(=O)(=O)O)cc3cc(NC(=O)c4ccc(C(=O)Nc5ccc6c(O)c(N=Nc7ccc(CCC(=O)O)cc7)c(S(=O)(=O)O)cc6c5)cc4)ccc3c2O)cc1` [Compound 164], the remaining activity at 10 µM stood at 0.15%.
Take `O=C(O)CCCc1ccc(N=Nc2c(S(=O)(=O)O)cc3cc(NC(=O)c4ccc(C(=O)Nc5ccc6c(O)c(N=Nc7ccc(CCCC(=O)O)cc7)c(S(=O)(=O)O)cc6c5)cc4)ccc3c2O)cc1` [Compound 165]: the remaining activity at 10 µM came out at 3.7%.
Still for that read-out and setting: to `O=C(O)CC(C(=O)O)c1ccc(N=Nc2c(S(=O)(=O)O)cc3cc(NC(=O)c4ccc(C(=O)Nc5ccc6c(O)c(N=Nc7ccc(C(CC(=O)O)C(=O)O)cc7)c(S(=O)(=O)O)cc6c5)cc4)ccc3c2O)cc1` (centres unmarked) [Compound 166] belongs 0.14%; to `COc1cc(C(=O)O)ccc1N=Nc1c(S(=O)(=O)O)cc2cc(NC(=O)c3ccc(C(=O)Nc4ccc5c(O)c(N=Nc6ccc(C(=O)O)cc6OC)c(S(=O)(=O)O)cc5c4)cc3)ccc2c1O` [Compound 167], 0.26%.
Regarding `Cc1cc(C(=O)O)ccc1N=Nc1c(S(=O)(=O)O)cc2cc(NC(=O)c3ccc(C(=O)Nc4ccc5c(O)c(N=Nc6ccc(C(=O)O)cc6C)c(S(=O)(=O)O)cc5c4)cc3)ccc2c1O` [Compound 168], the remaining activity at 10 µM stood at 0.5%.
Turning to `O=C(O)c1cccc(N=Nc2c(S(=O)(=O)O)cc3cc(NC(=O)c4ccc(C(=O)Nc5ccc6c(O)c(N=Nc7cccc(C(=O)O)c7)c(S(=O)(=O)O)cc6c5)cc4)ccc3c2O)c1` [Compound 170], the remaining activity at 10 µM came to 0.1%.
Same read-out and setting: the same measure for `O=C(Nc1ccc2c(O)c(N=Nc3cc(F)c(F)c(C(=O)O)c3F)c(S(=O)(=O)O)cc2c1)c1ccc(C(=O)Nc2ccc3c(O)c(N=Nc4cc(F)c(F)c(C(=O)O)c4F)c(S(=O)(=O)O)cc3c2)cc1` [Compound 171]: 0.15%; for `O=C(O)c1ccc(Cl)c(N=Nc2c(S(=O)(=O)O)cc3cc(NC(=O)c4ccc(C(=O)Nc5ccc6c(O)c(N=Nc7cc(C(=O)O)ccc7Cl)c(S(=O)(=O)O)cc6c5)cc4)ccc3c2O)c1` [Compound 172]: 0.08%.
The same measure, in the same setting: the same measure for `O=C(O)c1ccc(C(=O)O)c(N=Nc2c(S(=O)(=O)O)cc3cc(NC(=O)c4ccc(C(=O)Nc5ccc6c(O)c(N=Nc7cc(C(=O)O)ccc7C(=O)O)c(S(=O)(=O)O)cc6c5)cc4)ccc3c2O)c1` [Compound 173]: 27%; for `CC(=O)Nc1ccc(N=Nc2c(S(=O)(=O)O)cc3cc(NC(=O)c4ccc(C(=O)Nc5ccc6c(O)c(N=Nc7ccc(NC(C)=O)cc7)c(S(=O)(=O)O)cc6c5)cc4)ccc3c2O)cc1` [Compound 174]: 28%.
On the same count and under the same terms, to `COc1cc(N=Nc2c(S(=O)(=O)O)cc3cc(NC(=O)c4ccc(C(=O)Nc5ccc6c(O)c(N=Nc7cc(OC)c(OC)c(OC)c7)c(S(=O)(=O)O)cc6c5)cc4)ccc3c2O)cc(OC)c1OC` [Compound 175] belongs 62%; to `COc1ccc(N=Nc2c(S(=O)(=O)O)cc3cc(NC(=O)c4ccc(C(=O)Nc5ccc6c(O)c(N=Nc7ccc(OC)cc7)c(S(=O)(=O)O)cc6c5)cc4)ccc3c2O)cc1` [Compound 176], 60%; to `COc1cc(C(=O)O)c(N=Nc2c(S(=O)(=O)O)cc3cc(NC(=O)c4ccc(C(=O)Nc5ccc6c(O)c(N=Nc7c(C(=O)O)cc(OC)c(OC)c7OC)c(S(=O)(=O)O)cc6c5)cc4)ccc3c2O)c(OC)c1OC` [Compound 177], 0.17%.
Regarding `O=C(O)c1cc(N=Nc2c(S(=O)(=O)O)cc3cc(NC(=O)c4ccc(C(=O)Nc5ccc6c(O)c(N=Nc7cc(C(=O)O)cc(C(=O)O)c7)c(S(=O)(=O)O)cc6c5)cc4)ccc3c2O)cc(C(=O)O)c1` [Compound 178], the remaining activity at 10 µM was found to be 91%.
Still for that read-out and setting: the same measure for `COc1cc(N=Nc2c(S(=O)(=O)O)cc3cc(NC(=O)c4ccc(C(=O)Nc5ccc6c(O)c(N=Nc7cc(OC)c(OC)cc7C(=O)O)c(S(=O)(=O)O)cc6c5)cc4)ccc3c2O)c(C(=O)O)cc1OC` [Compound 179]: 7.5%.

Staying with this experiment, now noted: read-out: IC50 (RT activity).
Consider `O=C(Nc1ccc2c(O)c(N=Nc3ccc(-c4nnn[nH]4)cc3)c(S(=O)(=O)O)cc2c1)Nc1ccc2c(O)c(N=Nc3ccc(-c4nnn[nH]4)cc3)c(S(=O)(=O)O)cc2c1` [Compound 159], for which the pIC50 was 6.66.
